Laboratory results: patent publication US20250230155A1 (Vanderbilt University, priority 2021, published 2025)
pEC50: −log10 of the molar value.

Target: T1, human mAChR M4 (Homo sapiens, UniProt P08173)
T1 construct: expressed in transfected cells
T1 sequence (P08173 1-479): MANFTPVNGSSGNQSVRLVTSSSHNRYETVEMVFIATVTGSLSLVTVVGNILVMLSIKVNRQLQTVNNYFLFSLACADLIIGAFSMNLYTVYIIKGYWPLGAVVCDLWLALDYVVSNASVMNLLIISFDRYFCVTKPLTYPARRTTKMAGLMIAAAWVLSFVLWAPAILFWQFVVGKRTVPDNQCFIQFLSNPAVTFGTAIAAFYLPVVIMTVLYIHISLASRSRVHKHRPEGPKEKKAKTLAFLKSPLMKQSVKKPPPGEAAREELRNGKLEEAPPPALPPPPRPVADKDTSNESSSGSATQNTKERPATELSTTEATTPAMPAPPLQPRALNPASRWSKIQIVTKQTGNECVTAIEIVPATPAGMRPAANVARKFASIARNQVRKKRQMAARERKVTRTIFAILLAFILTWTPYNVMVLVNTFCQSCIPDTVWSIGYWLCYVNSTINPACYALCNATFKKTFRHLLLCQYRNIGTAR
Assay: mAChR M4 cell-based functional assay (calcium mobilization, CHO-K1 hM4-Gqi5 cells)
Details: for Emax at 30 µM: CHO-K1, % ACh maximum at 30 μM, human M4; for pEC50: positive allosteric modulator activity, increase in the EC20 acetylcholine response, CHO-K1 hM4-Gqi5 cells, read-out: Human M4 EC50; for Emax: CHO-K1
Procedure, shortened: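 Fluorescent calcium read-out (Fluo-4 AM, FDSS, 1 Hz) in hM4-Gqi5 CHO-K1 cells, 11-point 1:3 compound series. Agonism scored on compound addition, PAM activity as increase of the 144 s EC20 acetylcholine response, antagonism as decrease of the 230 s EC80 response; four-parameter logistic fits give EC50 and Emax.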

Row | Structure (SMILES) | Emax at 30 µM [%] | pEC50 | Emax [%]
1 | Cc1cc(C#N)cnc1N1CCc2ncc(Oc3cccc(F)c3F)cc2C1 [Example 350, 6-(3-(2,3-difluorophenoxy)-7,8-dihydro-1,6-naphthyridin-6(5H)-yl)-5-methylnicotinonitrile] | 84 | 6.26 | –
2 | Cc1ccc2c(n1)CCN(c1nnc(C#N)cc1C)C2 [Example 605, 5-methyl-6-(2-methyl-7,8-dihydro-1,6-naphthyridin-6(5H)-yl)pyridazine-3-carbonitrile] | – | 5.84 | 106
3 | Cc1nn(C)cc1-c1cnc2c(c1)CN(c1ncc(C(N)=O)cc1C(F)(F)F)CC2 [Example 487, 6-(3-(1,3-dimethyl-1H-pyrazol-4-yl)-7,8-dihydro-1,6-naphthyridin-6(5H)-yl)-5-(trifluoromethyl)nicotinamide] | 38 | 5.54 | –
4 | Cc1cnccc1CNC(=O)c1cc(C)c(N2CCc3ncc(N4CCCn5nccc54)cc3C2)nn1 [Example 491, 6-(3-(6,7-dihydropyrazolo[1,5-a]pyrimidin-4(5H)-yl)-7,8-dihydro-1,6-naphthyridin-6(5H)-yl)-5-methyl-N-((3-methylpyridin-4-yl)methyl)pyridazine-3-carboxamide] | 91 | 7.82 | –
5 | COCc1nc(Cl)c(C)c(N2CCc3ncc(-c4cn(C)nc4C)cc3C2)n1 [compound 216, 6-(6-chloro-2-(methoxymethyl)-5-methylpyrimidin-4-yl)-3-(1,3-dimethyl-1H-pyrazol-4-yl)-5,6,7,8-tetrahydro-1,6-naphthyridine] | 94 | 6.06 | –
6 | Cc1cc(C#N)nnc1N1CCc2ncc(N3CCCn4nc(C(F)(F)F)cc43)cc2C1 [Example 413, 5-methyl-6-(3-(2-(trifluoromethyl)-6,7-dihydropyrazolo[1,5-a]pyrimidin-4(5H)-yl)-7,8-dihydro-1,6-naphthyridin-6(5H)-yl)pyridazine-3-carbonitrile] | 102 | 6.59 | –
7 | [2H]C1([2H])Cc2ncc(-c3c(C)noc3C)cc2C([2H])([2H])N1c1nnc(C#N)cc1C [Example 621, 6-(3-(3,5-dimethylisoxazol-4-yl)-7,8-dihydro-1,6-naphthyridin-6(5H)-yl-5,5,7,7-d4)-5-methylpyridazine-3-carbonitrile] | 85 | 6.50 | –
8 | Cc1ccc(Nc2cnc3c(c2)CN(c2nnc(C#N)c(C)c2C)CC3)c(F)n1 [compound 79, 6-[3-[(2-fluoro-6-methyl-3-pyridyl)amino]-7,8-dihydro-5H-1,6-naphthyridin-6-yl]-4,5-dimethyl-pyridazine-3-carbonitrile] | 82 | 6.63 | –
9 | Cc1cnc2c(c1)CN(c1nnc(C(=O)NCc3cncs3)c(C)c1C)CC2 [Example 468, 4,5-dimethyl-6-(3-methyl-7,8-dihydro-1,6-naphthyridin-6(5H)-yl)-N-(thiazol-5-ylmethyl)pyridazine-3-carboxamide] | 108 | 6.92 | –
10 | Cc1nc(Cl)c(C)c(N2CCc3ncc(C(F)F)cc3C2)n1 [compound 215, 6-(6-chloro-2,5-dimethylpyrimidin-4-yl)-3-(difluoromethyl)-5,6,7,8-tetrahydro-1,6-naphthyridine] | – | 6.86 | 93
11 | Cc1cc(C(=O)NCc2cncs2)nnc1N1CCc2ncc(CC(F)(F)F)cc2C1 [Example 590, 5-methyl-N-(thiazol-5-ylmethyl)-6-(3-(2,2,2-trifluoroethyl)-7,8-dihydro-1,6-naphthyridin-6(5H)-yl)pyridazine-3-carboxamide] | 94 | 7.39 | –
12 | Cc1nc(Cl)c(C)c(N2Cc3cc([N+](=O)[O-])cnc3C(C)C2)n1 (centres unmarked) [compound 222, 6-(6-chloro-2,5-dimethylpyrimidin-4-yl)-8-methyl-3-nitro-5,6,7,8-tetrahydro-1,6-naphthyridine] | 91 | 6.48 | –
13 | Cc1nc(N2CCCC2)nc(N2CCc3ncc(Nc4ccnn4C)cc3C2)c1C [compound 277, 6-(5,6-dimethyl-2-(pyrrolidin-1-yl)pyrimidin-4-yl)-N-(1-methyl-1H-pyrazol-5-yl)-5,6,7,8-tetrahydro-1,6-naphthyridin-3-amine] | 98 | 7.04 | –

Second part, led by results:

Row | Emax at 30 µM [%] | pEC50 | Structure (SMILES) | Emax [%]
14 | 116 | 7.77 | Cc1cc(C(=O)N2CC(c3cccnc3)C2)nnc1N1CCc2ncc(N3CCCn4nccc43)cc2C1 [Example 526, (6-(3-(6,7-dihydropyrazolo[1,5-a]pyrimidin-4(5H)-yl)-7,8-dihydro-1,6-naphthyridin-6(5H)-yl)-5-methylpyridazin-3-yl)(3-(pyridin-3-yl)azetidin-1-yl)methanone] | –
15 | 47 | ≤ 5.00 | Cc1ccc(OCCOc2cnc3c(c2)CN(c2ncc(C#N)cc2C)CC3)cc1 [Example 431, 5-methyl-6-(3-(2-(p-tolyloxy)ethoxy)-7,8-dihydro-1,6-naphthyridin-6(5H)-yl)nicotinonitrile] | –
16 | 70 | 6.06 | Cc1cc(F)ncc1-c1cnc2c(c1)CN(c1nnc(C#N)cc1C)CC2 [Example 593, 6-(3-(6-fluoro-4-methylpyridin-3-yl)-7,8-dihydro-1,6-naphthyridin-6(5H)-yl)-5-methylpyridazine-3-carbonitrile] | –
17 | 103 | 6.72 | Cc1nc(NC2CCOC2)nc(N2CCc3ncc(Nc4ccnn4C)cc3C2)c1C (centres unmarked) [compound 279, 6-(5,6-dimethyl-2-((tetrahydrofuran-3-yl)amino)pyrimidin-4-yl)-N-(1-methyl-1H-pyrazol-5-yl)-5,6,7,8-tetrahydro-1,6-naphthyridin-3-amine] | –
18 | 50 | 6.34 | Cc1c(C#N)nnc(N2CCc3ncc(-c4ccc(N(C)C)nc4)cc3C2)c1C [Example 312, 6-(3-(6-(dimethylamino)pyridin-3-yl)-7,8-dihydro-1,6-naphthyridin-6(5H)-yl)-4,5-dimethylpyridazine-3-carbonitrile] | –
19 | 43 | 5.50 | Cc1cc(C(=O)NCc2ccc3ncccc3c2)cnc1N1CCc2ncccc2C1 [compound 68, 6-(7,8-dihydro-5H-1,6-naphthyridin-6-yl)-5-methyl-N-(6-quinolylmethyl)pyridine-3-carboxamide] | –
20 | 88 | 6.75 | Cc1cc(C(=O)NCc2cscn2)cnc1N1CCc2ncc(-c3ccc(C4CC4)nc3)cc2C1 [Example 484, 6-(3-(6-cyclopropylpyridin-3-yl)-7,8-dihydro-1,6-naphthyridin-6(5H)-yl)-5-methyl-N-(thiazol-4-ylmethyl)nicotinamide] | –
21 | 47 | 5.44 | Cc1c(C#N)nnc(N2CCc3ncc(N4CCO[C@@H](c5ccccc5)C4)cc3C2)c1C [Example 379, (S)-4,5-dimethyl-6-(3-(2-phenylmorpholino)-7,8-dihydro-1,6-naphthyridin-6(5H)-yl)pyridazine-3-carbonitrile] | –
22 | 89 | 6.68 | Cc1c(C#N)nnc(N2Cc3cc(C(F)(F)F)cnc3CC2C)c1C (centres unmarked) [Example 367, 4,5-dimethyl-6-(7-methyl-3-(trifluoromethyl)-7,8-dihydro-1,6-naphthyridin-6(5H)-yl)pyridazine-3-carbonitrile] | –
23 | 82 | 6.67 | Cc1nc(Cl)c(C)c(N2CCc3ncc(-c4ccc(F)nc4)cc3C2)n1 [compound 224, 6-(6-chloro-2,5-dimethylpyrimidin-4-yl)-3-(6-fluoropyridin-3-yl)-5,6,7,8-tetrahydro-1,6-naphthyridine] | –
24 | 91 | 6.78 | Cc1cc(C(=O)N2CCC2c2ccccc2)nnc1N1CCc2ncc(N3CCCn4nccc43)cc2C1 (centres unmarked) [Example 557, (6-(3-(6,7-dihydropyrazolo[1,5-a]pyrimidin-4(5H)-yl)-7,8-dihydro-1,6-naphthyridin-6(5H)-yl)-5-methylpyridazin-3-yl)(2-phenylazetidin-1-yl)methanone] | –
25 | 76 | 6.84 | Cc1cc(C#N)cnc1N1CCc2ncc(-c3ccc(F)nc3)cc2C1 [Example 319, 6-(3-(6-fluoropyridin-3-yl)-7,8-dihydro-1,6-naphthyridin-6(5H)-yl)-5-methylnicotinonitrile] | –
26 | 88 | 6.84 | Cc1cnc2c(c1)CN(c1ncc(C(=O)NCc3ccncc3C)cc1C)CC2 [Example 441, 5-methyl-6-(3-methyl-7,8-dihydro-1,6-naphthyridin-6(5H)-yl)-N-((3-methylpyridin-4-yl)methyl)nicotinamide] | –
27 | 96 | 6.61 | Cc1c(C#N)nnc(N2CCc3ncc(N4CC(C)Cn5nccc54)cc3C2)c1C (centres unmarked) [Example 374, 4,5-dimethyl-6-(3-(6-methyl-6,7-dihydropyrazolo[1,5-a]pyrimidin-4(5H)-yl)-7,8-dihydro-1,6-naphthyridin-6(5H)-yl)pyridazine-3-carbonitrile] | –
28 | 101 | 7.21 | Cc1cc(C(=O)N2CC(c3cccnc3)C2)nnc1N1CCc2ncc(N3CCO[C@H](C)C3)cc2C1 [Example 541, (R)-(5-methyl-6-(3-(2-methylmorpholino)-7,8-dihydro-1,6-naphthyridin-6(5H)-yl)pyridazin-3-yl)(3-(pyridin-3-yl)azetidin-1-yl)methanone] | –
